Data published in patent US7432045B2 (priority 2003, dated 2008).
Peptide text beside a SMILES is read from it. * marks the point of attachment. Biotin = O=C1N[C@H]2[C@H](CS[C@H]2CCCCC(=O)*)N1; Ahx = NCCCCCC(=O)O

Columns and labels:
HSV-1 KOS mutant hrR3 [1] = assay: Inactivation of pre-adsorbed virus (virus inactivation); assay type: cell-based; details: pre-adsorbed virus
Description: Two assays were used to assess the ability of the TAT peptides to inhibit infection of Vero cells with the hrR3 virus. In both assays, the virus was preadsorbed to cells at 4° C. and entry was initiated in the presence of peptide by shifting the cultures to a permissive temperature (30-37° C.). One hour later, the peptide was rinsed off. The entry blocking activity was measured in half of the cultures, in which any extracellular virus remaining after the peptide treatment was inactivated with low pH citrate buffer. The rest of the cultures were exposed to PBS instead of citrate buffer and used to measure virus inactivation. Virus inactivation depended on persistent effects of the peptide lasting for a period of eight hours. At the end of that period, all cultures were fixed and infected cells were detected by staining with X-gal.
Virus (m.o.i.=0.025) was preadsorbed to Vero cells for 1 h at 4° C. before cultures were exposed to TAT-C (FIG. 15A), bTAT-9X (FIG. 15B), or n50,51TAT-C (FIGS. 15C, 15D) for 1 h at 33 (FIGS. 15A, 15B), 31 (FIG. 15C), or 37° C. (FIG. 15D). […] Inhibition of entry was measured in the citrate-treated cultures, in which any remaining external virus was inactivated immediately following exposure to peptide (●). Persistent virus inactivation lasting, at least in part, for the 8 h period following exposure to peptide, was measured in the PBS-treated cultures (◯). The IC50s measured in these experiments are included in Table 5.

HSV-1 KOS mutant hrR3 [2] = assay: Release of preadsorbed virus into the culture medium; assay type: cell-based
Description: Release of preadsorbed virus into the culture medium: Virus preadsorbed to Vero cells (m.o.i.=0.02) was exposed to heparin (porcine intestinal mucosa; Sigma-Aldrich Co., St. Louis Mo.; #H9399) or to peptides in 40 μL of serum-supplemented DMEM. After 1 h at 4° C., the culture medium and two 40 μL rinses were collected and pooled from eight identically treated wells. Pooled samples were centrifuged at 14,000×g in an Eppendorf 5415 centrifuge for 99 min at 4° C. or they were first adjusted to 0.5 M NaCl by adding 2 M NaCl dissolved in serum-supplemented DMEM prior to centrifugation. Supernatants were aspirated, the pellets were resuspended in 120 μL serum-supplemented DMEM and duplicate 50 μL aliquots were assayed for infectivity in Vero cell cultures. Calculations of the amount of released virus assumed 47% virus recovery in the centrifugation step, since control experiments had established that 47% of virus input was recovered regardless of whether the virus was sedimented in the presence or absence of 0.5 M NaCl.
In this example pre-adsorbed virus was exposed to heparin (FIG. 19 Panels A, B) or TAT-Cd peptide (FIG. 19 Panels C, D) for 1 h at 4° C. (FIG. 19 Panels A, B, C) or 18° C. (FIG. 19 Panel D) and any virus released into the culture medium during this time was collected and pelleted in the presence (◯) or absence (▴) of 0.5 M NaCl and assayed for infectivity as described in Example 1. […] Virus inhibition (●) corresponds to the number of LacZ+ cells seen in the absence of inhibitor minus the number of LacZ+ cells seen in the presence of inhibitor and is equivalent to the maximal amount of virus potentially released into the culture medium as a result of virus inhibition. Panel B compares the amount of infectious virus recovered in the presence (◯; data from Panel A) and absence (▴) of 0.5 M NaCl at an expanded scale.

hrR3 virions = assay: Inactivation of virions in solution; assay type: cell-based, HSV-1; details: 200 μM peptide
Description: Inactivation of virions: To assess the ability of peptides to inactivate virions, 3-4×10^6 pfu/mL of virus was mixed on ice with peptide in serum-free DMEM and incubated for 1 h at 4 or 37° C. Aliquots (10 μL) were diluted 1000-fold into peptide-free serum-supplemented DMEM at 23° C. and 50 μL aliquots were assayed in triplicate for infectivity in Vero cell cultures (dilution assay). Alternatively, 10 μL aliquots were diluted into 1 mL of ice-cold peptide-free serum-supplemented DMEM and the virus was pelleted as described above (centrifugation assay). Viral pellets were then resuspended in 250 μL serum-supplemented DMEM and 50 μL aliquots were assayed in triplicate for infectivity in Vero cell cultures.
Some of the virus diluted without the addition of NaCl was pelleted immediately (Control), while the rest of the diluted virus was stored at 4° C. and pelleted 19 h later. The virus was pelleted and assayed for infectivity as described in Example 1.

cornea = assay: In vivo peptide toxicity, cornea; design: species or system BALB/C mice
Description: (i) Cornea: Four-6-week-old female BALB/C mice (Harlan Sprague Dawley, Indianapolis, Ind.) were anesthetized by halothane inhalation (3-5%). A 2.0 μL drop of serum-free 5×DMEM solution containing 6.1 mM EB, 6.1 mM EBX, 7.5 mM TAT-C, 7.5 mM n50,51 TAT-C, 7.5 mM TAT-Cd, or 11.2 mM bHOMd or serum-free DMEM only (control) was then placed on the cornea and the mice were returned to their cages. Each group consisted of 5 mice, except for 11.2 mM bHOMd, and 7.5 mM TAT-Cd, which consisted of 4 mice. Only the right eye in each mouse received the peptide. Treatments were given 4 times per day at least 2 hrs apart for 7 days. On days 1, 5, and 7, the mice were examined microscopically for evidence of blepharitis, punctate keratopathy, dendrite ulceration and geographic ulceration. Damage to the corneal epithelium was assessed by staining with 1.0% […] and examination under a microscope with blue light. Blepharitis was scored: 1+ for noticeable puffy eyelids, 2+ for puffy eyelids with moderate crusting, 3+ for eye 50% swollen shut with severe crusting, and 4+ for eye totally swollen and crusted shut (Brandt et al., 1992). Punctate keratopathy, dendrite ulceration, and geographic ulceration were scored: 1+ for <25% of the cornea involved, 2+ for 25-50% involved, 3+ for 50-75% involved, and 4+ for >75% involved. The mean disease score for each group of mice on each day was calculated by the sum of disease scores in each group on each day divided by the numbers of mice in that group. On day 7, following the last treatment, the mice were sacrificed and the eyes were removed, fixed in 10% formalin, embedded in paraffin, sectioned (5μ each), and stained with hematoxylin and eosin as we have described previously (Brandt et al., 1996). Sections were then examined for evidence of damage to the cornea, sclera, lens, and retina.

trypsin = molecular target: T1, trypsin (Sus scrofa, UniProt P00761); assay: Trypsinization of peptides; details: 0.005 or 0.01% trypsin, 1 h at 37° C.
T1 construct: purchased BioWhittaker 17-160E
Description: Trypsinization of peptides: Peptides dissolved in serum-free DMEM were exposed to 0.005 or 0.01% trypsin for 1 h at 37° C. The trypsin was then inactivated with a 1.3-fold molar excess of soybean trypsin inhibitor and the ability of the peptides to inactivate virions was tested as described above (centrifugation assay). In controls, trypsin was inactivated before it was added to the peptides.
In Panel B, peptides in serum-free medium were pre-treated with active trypsin (open bars) or inactivated trypsin (shaded bars) for 1 h at 37° C. before they were added to virions for 1 h at 37° C. (see Example 1). The treated virions were then pelleted and resuspended in serum-supplemented medium and assayed for infectivity without further trypsinization. The peptide concentrations were as high or higher than those used in Panel A: […] TAT-C, 50 μM bKLA, 200 μM EB and bHOM-9. Trypsin concentrations used in both Panels A and B, were 0.005% (for bKLA, EB and bHOM-9) or 0.01% (for TAT-C and the ‘no peptide’ control).

vagina = details: mouse, in vivo
MTS assay [3] = details: African green monkey, CV-1PD cells (kidney)
[4] = system: Vero, HeLa, CV-1PD, TM-1, DP-9, CEMx174, NIKS, W12E cells; assay: MTS assay, eight cell lines; details: eight cell lines
MTS assay [5] = details: human, TM-1 cells (trabecular meshwork)
MTS assay [6] = details: human, W12E cells (cervical carcinoma cell line)
MTS assay [7] = details: human, DP-9 cells (foreskin fibroblast)
MTS assay [8] = details: human, CEMx174 cells (T-B hybridoma)
MTS assay [9] = details: human, NIKS cells (normal immortalized keratinocytes)
MTS assay [10] = details: human, HeLa cells
MTS assay [11] = details: African green monkey, Vero cells

T1 sequence (P00761 9-231): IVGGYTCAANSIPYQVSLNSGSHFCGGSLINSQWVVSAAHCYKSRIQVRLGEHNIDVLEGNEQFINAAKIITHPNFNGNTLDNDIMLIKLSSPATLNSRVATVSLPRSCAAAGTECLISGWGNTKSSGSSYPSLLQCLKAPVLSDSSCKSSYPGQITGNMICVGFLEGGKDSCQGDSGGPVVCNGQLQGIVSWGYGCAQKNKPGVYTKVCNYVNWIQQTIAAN

Question: With `N=C(N)NCCC[C@@H](NC(=O)CN)C(=O)N[C@H](CCCCN)C(=O)N[C@H](CCCCN)C(=O)N[C@H](CCCNC(=N)N)C(=O)N[C@H](CCCNC(=N)N)C(=O)N[C@H](CCC(N)=O)C(=O)N[C@H](CCCNC(=N)N)C(=O)N[C@H](CCCNC(=N)N)C(=O)N[C@H](CCCNC(=N)N)C(=O)N[C@H](CS)C(=O)O` [TAT-Cd, NH2-GRKKRRQRRRC-COOH] as the molecule, how does the “plateau / maximal extent of virus inactivation” value (HSV-1 KOS mutant hrR3 [1]) read?
Answer: ~100%

Question: What about the “inactivation of preadsorbed virus” value (HSV-1 KOS mutant hrR3 [2]; 18° C.) of the same molecule?
Answer: 93%

Question: What about the virus recovery (HSV-1 KOS mutant hrR3 [2]; 18° C., 0.5 M NaCl) of the same molecule?
Answer: ≤ 5.6%

Question: What about the “potentially released virus actually recovered in the medium” value (HSV-1 KOS mutant hrR3 [2]; 1 h treatment at 4° C., 0.5 M NaCl) of the same molecule?
Answer: 4.4%

Question: What about the “infectious preadsorbed virus recovered in the culture medium (maximal)” value (HSV-1 KOS mutant hrR3 [2]; summary, FIG. 19) of the same molecule?
Answer: about 5%

Question: What about the “concentration at which not active against the H5 strain” value (H5 Avian Influenza virus) of the same molecule?
Answer: > 100 µM

Question: What about the “recovery of infectious virions, of the mock-treated virus” value (hrR3 virions; 1 h at 37° C., pelleted immediately) of the same molecule?
Answer: < 1%

Question: And the “increase of viral yields by 0.5 M NaCl during 19 h incubation, of the mock-treated controls” value (hrR3 virions; 19 h at 4° C.)?
Answer: about 1%

Question: And the punctate keratopathy (cornea; calcein staining)?
Answer: very mild punctate keratopathy

Question: What about the blepharitis (cornea; four times a day for seven days) of the same molecule?
Answer: mild blepharitis

Question: And the “effect of trypsinization of the peptide on its antiviral activity” value (trypsin)?
Answer: no effect on antiviral activity

Question: And the “inhibition after rinsing with 0.5 M NaCl” value (hrR3; 30 μM peptide 1 h at 4° C.)?
Answer: completely reversed

Question: What about the infection blocked (hrR3; 30 μM peptide 1 h at 4° C., rinsed with culture medium alone) of the same molecule?
Answer: 90%

Question: What about the “time needed to induce cellular resistance” value (hrR3; 30 μM peptide, 37° C.) of the same molecule?
Answer: almost instantaneously

Question: For nonoxynol-9 [N−9], which “effect on vaginal tissues (H&E sections)” value (vagina) is on record?
Answer: No differences in the appearance of the tissues

Question: For `CC[C@H](C)[C@H](NC(=O)[C@H](CCCCN)NC(=O)[C@@H](NC(=O)[C@H](CCC(N)=O)NC(=O)[C@H](CCCNC(=N)N)NC(=O)CCCCCNC(=O)CCCC[C@@H]1SC[C@@H]2NC(=O)N[C@@H]21)[C@@H](C)CC)C(=O)N[C@@H](Cc1c[nH]c2ccccc12)C(=O)N[C@@H](Cc1ccccc1)C(=O)N1CCC[C@H]1C(=O)N[C@@H](CC(N)=O)C(=O)N[C@@H](CCCNC(=N)N)C(=O)N[C@@H](CCCNC(=N)N)C(=O)N[C@@H](CCSC)C(=O)N[C@@H](CCCCN)C(=O)N[C@@H](Cc1c[nH]c2ccccc12)C(=O)N[C@@H](CCCCN)C(=O)N[C@@H](CCCCN)C(N)=O` [bHOM] ({Biotin-Ahx}-RQIKIWFPNRRMKWKK-NH2; N-terminus and C-terminus assumed), which EC50 (MTS assay [3]) is on record?
Answer: 180 µM

Question: And the “cytotoxicity to cells (MTS), overall” value [4]?
Answer: generally not cytotoxic

Question: And the EC50 (MTS assay [5])?
Answer: > 200 µM

Question: And the EC50 (MTS assay [6])?
Answer: > 200 µM

Question: And the EC50 (MTS assay [7])?
Answer: 150 µM

Question: What about the EC50 (MTS assay [8]) of the same molecule?
Answer: 50 µM

Question: What about the EC50 (MTS assay [9]) of the same molecule?
Answer: > 200 µM

Question: And the EC50 (MTS assay [10])?
Answer: 100 µM

Question: And the EC50 (MTS assay [11])?
Answer: 75 µM
